Measurements published in patent US20220323591A1, “HEPARIN NANO DRUG CARRIER SYSTEM LOADED WITH AMINO ANTI-TUMOR DRUG AND PREPARATION METHOD THEREOF” (NANJING KING-FRIEND BIOCHEMICAL PHARMACEUTICAL CO., LTD., priority 2020, published 2022).

Key:
[1] = tested on: 4T1 breast cancer xenograft tumors; assay: In vivo experiment of breast cancer cells, daunorubicin nano drug carrier systems; conditions: 3 mg/kg via caudal veins, once every three days, 4 times; 4T1 in BALB/c mice
Procedure: Anti-tumor effects of nanoparticles in vivo are studied in BALB/c mice with 4T1 breast cancer xenograft tumors. Free daunorubicin (Group I), daunorubicin-Py-PEG-HP (Group II) and daunorubicin-Mal-PEG-HP (Group III) are administered via caudal veins at a dose of 3 mg/kg, for once every three days and in total 4 times, with the free daunorubicin group (Group I) as the control.

[2] = tested on: acute promyelocytic leukemia (HL-60) cells; assay: Uptake experiment of leukemia cells; format: cell-based; conditions: 1×10^5/ml
Procedure: An uptake experiment of free daunorubicin, daunorubicin-Py-PEG-HP and daunorubicin-Mal-PEG-HP with acute promyelocytic leukemia (HL-60) cells: the concentration of HL-60 cells is adjusted to 1×10^5/ml, and the cells are added into a 24 -well plate with 1 ml per well; a certain concentration of pure DNR solution and a certain concentration of DNR-NP suspension are added into a culture plate, and cultured for a certain time, then the cells are taken out at five time points (30 min, 60 min, 90 min, 120 min and 180 min) respectively; centrifugation is performed at 4° C. under 1000 rpm for 5 min, and the cells are collected, and then washed twice using a RPM11640 medium added with serum; the cells are lysed with 1.5 ml of 50 μg/ml protease K and a 1% SDS solution, with continuous shaking performed at 37° C. for 12 hours, and a cell extract is collected; and the drug content in the cells is calculated by a fluorescence intensity standard curve.

[3] = tested on: xenotransplantation 4T1 tumor model; assay: In vivo experiment of breast cancer cells, lenalidomide and lapatinib nano drug carrier systems; parameters: species or system BALB/c mice; conditions: 4 mg/kg via caudal veins, once every two days, 5 times; normal saline as control
Procedure: The anti-tumor effect of nanoparticles in vivo is based on investigation of a xenotransplantation 4T1 tumor model established in the BALB/c mice. Each of groups represents normal saline (Group I), free lenalidomide (Group II), lenalidomide-Py-PEG-HP (Group III), […] lenalidomide-Mal-PEG-HP (Group IV), free lapatinib (Group V), lapatinib-Py-PEG-HP (Group VI) and lapatinib-Mal-PEG-HP (Group VII) respectively, wherein they are administrated via caudal veins at a dosage of 4 mg/kg, once every two days, with a total of 5 times. As shown in the diagram below, the tumor development is detected on the second day after administration.

[4] = tested on: 5T33 multiple myeloma cells; assay: In vivo experiment of multiple myeloma; parameters: species or system mice
Procedure: Thirty 6-week-old mice are divided into three groups, which are administrated with free lenalidomide (Group I), lenalidomide-Py-PEG-HP (Group II) and lenalidomide-Mal-PEG-HP (Group III) respectively. Male and female animals in each group are halved, and there is no statistically significant difference in body weight among animals in each group. The dosage of free lenalidomide group is 0.1 ml/kg body weight/day, and the dosage of lenalidomide-Py-PEG-HP group and lenalidomide-Mal-PEG-HP group is 20 mg/kg (body weight/day).
One week after injection of 1,000,000 5T33 multiple myeloma cells into the tail veins of mice, drugs are administered subcutaneously according to the above scheme, for three times a week. During the administration period, the animals are weighed every day, and the dosage on that day is determined according to the weight, and the animals are continuously administered until death of the mice. The venous blood of mice is collected and stored every week, and the time of death of mice is recorded.
According to the statistical test, there is significant difference in the survival time of mice when free lenalidomide group is compared with heparin nano drug carrier system (P<0.05), as shown in Table 1. There is significant difference in the tumor load in serum of mice when the free lenalidomide group is compared with heparin nano drug carrier system (P<0.05), as shown in Table 2.

SMILES | anti-tumor effect (tumor volume) [1] | uptake efficiency [2] | anti-tumor effect (tumor development) [3] | Average survival days of mice after drug injection ([4]; 5T33 mice, subcutaneous, three times a week, free lenalidomide 0.1 ml/kg body weight/day, conjugates 20 mg/kg) | Average tumor load in serum of mice after drug injection ([4]; 1 day, mouse LGg2b concentration) | Average tumor load in serum of mice after drug injection ([4]; 8 days) | Average tumor load in serum of mice after drug injection ([4]; 15 days) | Average tumor load in serum of mice after drug injection ([4]; 22 days) | Average tumor load in serum of mice after drug injection ([4]; 29 days)
COc1cccc2c1C(=O)c1c(O)c3c(c(O)c1C2=O)C[C@@](O)(C(C)=O)C[C@@H]3O[C@H]1C[C@H](N)[C@H](O)[C@H](C)O1 [free daunorubicin, daunorubicin] | insignificant anti-tumor activity | 16% | – | – | – | – | – | – | –
CS(=O)(=O)CCNCc1ccc(-c2ccc3ncnc(Nc4ccc(OCc5cccc(F)c5)c(Cl)c4)c3c2)o1 [free lapatinib, lapatinib] | – | – | have the anti-tumor activity | – | – | – | – | – | –
Nc1cccc2c1CN(C1CCC(=O)NC1=O)C2=O (stereo not shown) [free lenalidomide, lenalidomide] | – | – | have the anti-tumor activity | 35 days | 125.3 µg/mL | 206.5 µg/mL | 335.2 µg/mL | 611.4 µg/mL | 864.1 µg/mL
